Assay results: paper PMC9864514, “Evaluation of the Local Anesthetic Activity, Acute Toxicity, and Structure–Toxicity Relationship in Series of Synthesized 1-Aryltetrahydroisoquinoline Alkaloid Derivatives In Vivo and In Silico” (Molecules, 2023)
Entries after “also recorded” stand apart in the source; their conditions may differ.

Tests used:
Type in all cases: in vivo
[1] = Acute toxicity and resorptive action in white mice, intragastric administration; details: mouse, in vivo, po, intragastric administration, N = 10, Litchfield–Wilcoxon
Procedure: (§1) The acute toxicity and resorptive action were determined in white mice weighing 20–24 g by gradual oral administration at doses of 1–5000 mg/kg.
(§2) The animals were kept under standard nursery conditions with a natural 12-h light-dark cycle, at an air temperature of 20 ± 2 °C. The animals had unlimited access to food and water. The experiments were performed in accordance with the International Convention for the Protection of Vertebrate Animals used for Experimental and Scientific Purposes (Strasbourg, 1986). Each substance was tested on 10 mice and LD50 was determined graphically by the well-known Litchfield–Wilcoxon method.

rabbit eye cornea = experiment: Local anesthetic activity, rabbit eye cornea terminal anesthesia test; details: for Onset of Anesthesia / Total Duration of Anesthesia / Duration of Complete Anesthesia / Duration of complete anesthesia, times longer than lidocaine: rabbit corneal model; for Onset of Anesthesia / Total Duration of Anesthesia / Duration of Complete Anesthesia: 1% aqueous solution; for Duration of Complete Anesthesia: percentage of the anesthetic activity of lidocaine (=100%); for Duration of complete anesthesia, times longer than lidocaine: 1% concentration; for Local irritant effects on rabbit eyes: concentrations studied
Procedure: Local anesthetic activity was evaluated using the rabbit eye cornea terminal anesthesia test on 2.0–2.5 kg male chinchilla rabbits after introduction of total 0.4 mL (0.2 mL twice with an interval of 30 s) of 1.0 % solutions of the studied substances. Lidocaine was used as an etalon drug. Each substance was tested on three rabbits.

white mice = experiment: Acute toxicity and resorptive action in white mice, intragastric administration; details: for Decrease of acute toxicity compared with 3a: intragastric, relative to parent compound 3a
Procedure: as §1, §2

Compound | LD50 [1] [mg/kg] | Onset of Anesthesia (rabbit eye cornea) [min] | Total Duration of Anesthesia (rabbit eye cornea) [min] | Duration of Complete Anesthesia (rabbit eye cornea) | Decrease of acute toxicity compared with 3a (white mice) | Duration of complete anesthesia, times longer than lidocaine (rabbit eye cornea) [times] | LD50 (white mice; intragastric administration, N = 10, Litchfield–Wilcoxon) | Local irritant effects on rabbit eyes (rabbit eye cornea)
COc1cc2c(cc1OC)C(c1ccccc1)NCC2 (centres unmarked) [Compound 3a, 1-(Phenyl)-6,7-dimethoxy-1,2,3,4-tetrahydroisoquinoline] | 280 | 3.0 ± 1.1 | 53.0 ± 4.6 | +50% | – | – | – | –
COc1cc2c(cc1OC)C(c1ccccc1O)NCC2 (centres unmarked) [Compound 3b, 1-(2′-Hydroxyphenyl)-6,7-dimethoxy-1,2,3,4-tetrahydroisoquinoline] | 375 | 1.0 ± 0.4 | 44.0 ± 1.5 | +50% | did not result in a significant decrease of toxicity | – | – | –
COc1ccc(C2NCCc3cc(OC)c(OC)cc32)cc1O (centres unmarked) [Compound 3c, 1-(3′-Hydroxy-4′-methoxyphenyl)-6,7-dimethoxy-1,2,3,4-tetrahydroisoquinoline] | 980 | 3.0 ± 0.8 | 70.0 ± 4.5 | +40% | 3.5 fold | – | – | –
COc1ccc(C2NCCc3cc(OC)c(OC)cc32)cc1OC (centres unmarked) [Compound 3d, 1-(3′,4′-Dimethoxyphenyl)-6,7-dimethoxy-1,2,3,4-tetrahydroisoquinoline] | 670 | 2.0 ± 0.7 | 70.0 ± 2.1 | +60% | 2.5–2.6 fold | – | – | –
COc1cc2c(cc1OC)C(c1ccc(O)c(Br)c1)NCC2 (centres unmarked) [Compound 3e, 1-(3′-Bromo-4′-hydroxyphenyl)-6,7-dimethoxy-1,2,3,4-tetrahydroisoquinoline] | 3850 | 5.0 ± 0.9 | 80.0 ± 3.2 | +49% | 13.75 fold | – | – | –
COc1cc2c(cc1OC)C(c1cc(Br)ccc1O)NCC2 (centres unmarked) [Compound 3f, 1-(5′-Bromo-2′-hydroxyphenyl)-6,7-dimethoxy-1,2,3,4-tetrahydroisoquinoline] | 305 | 1.0 ± 0.5 | 64.0 ± 3.8 | – | did not result in a significant decrease of toxicity | 1.6 | – | –
COc1cc(Br)c(C2NCCc3cc(OC)c(OC)cc32)cc1OC (centres unmarked) [Compound 3g, 1-(2′-Bromo-4′,5′-dimethoxyphenyl)-6,7-dimethoxy-1,2,3,4-tetrahydroisoquinoline] | 290 | 2.0 ± 1.0 | 44.0 ± 3.5 | +90% | no significant change in acute toxicity | – | – | –
COc1cc(Br)c(C2NCCc3cc(OC)c(OC)cc32)cc1O (centres unmarked) [Compound 3h, 1-(2′-Bromo-5′-hydroxy-4′-methoxyphenyl)-6,7-dimethoxy-1,2,3,4-tetrahydroisoquinoline] | 550 | 1.0 ± 0.4 | 40.0 ± 3.2 | +170% | about 2 fold | 1.7 | – | –
COc1cc2c(cc1OC)C(c1ccc3c(c1)OCO3)NCC2 (centres unmarked) [Compound 3i, 1-(3′,4′-Methylenedioxyphenyl)-6,7-dimethoxy-1,2,3,4-tetrahydroisoquinoline] | 280 | 2.0 ± 0.4 | 57.0 ± 3.7 | +80% | did not lead to a change in acute toxicity | – | – | –
COc1cc2c(cc1OC)C(c1cc3c(cc1Br)OCO3)NCC2 (centres unmarked) [Compound 3j, 1-(2′-Bromo-4′,5′-methylenedioxyphenyl)-6,7-dimethoxy-1,2,3,4-tetrahydroisoquinoline] | 730 | 2.0 ± 1.0 | 52.0 ± 4.0 | +90% | 2.5 fold | – | – | –
COc1cc2c(cc1OC)C(c1cc3c(cc1Cl)OCO3)NCC2 (centres unmarked) [Compound 3k, 1-(4′,5′-Methylenedioxy-2′-chlorophenyl)-6,7-dimethoxy-1,2,3,4-tetrahydroisoquinoline] | 520 | 2.0 ± 1.2 | 43.0 ± 4.5 | +90% | 1.86 fold | – | – | –
COc1cc2c(cc1OC)C(c1cc(Br)c(O)c(OC)c1)NCC2 (centres unmarked) [Compound 3l, 1-(5′-Bromo-4′-hydroxy-3′-methoxyphenyl)-6,7-dimethoxy-1,2,3,4-tetrahydroisoquinoline] | 1560 | 5.0 ± 1.2 | 89.0 ± 3.0 | +140% | 5.6 fold | 1.4 | – | –
COc1cc2c(cc1OC)C(c1ccc([N+](=O)[O-])cc1)NCC2 (centres unmarked) [Compound 3m, 1-(4′-Nitrophenyl)-6,7-dimethoxy-1,2,3,4-tetrahydroisoquinoline] | 1950 | 3.0 ± 0.4 | 48.0 ± 2.8 | +80% | – | – | – | –
COc1cc2c(cc1OC)C(c1cccc([N+](=O)[O-])c1)NCC2 (centres unmarked) [Compound 3n, 1-(3′-Nitrophenyl)-6,7-dimethoxy-1,2,3,4-tetrahydroisoquinoline] | 460 ± 598 | 3.0 ± 1.0 | 37.0 ± 3.2 | +260% | – | 2.6 | 525 (460.5 ± 598.5) mg/kg | eye irritation and redness; also recorded: reversible irritation and redness of the eyes
COc1cc2c(cc1OC)C(c1cccc(Br)c1)NCC2 (centres unmarked) [Compound 3o, 1-(3′-Bromophenyl)-6,7-dimethoxy-1,2,3,4-tetrahydroisoquinoline] | 710 | 2.0 ± 0.4 | 115.0 ± 3.8 | +130% | 2.5–2.6 fold | – | – | –
COc1cc2c(cc1OC)C(c1ccccc1OC)NCC2 (centres unmarked) [Compound 3p, 1-(2′-Methoxyphenyl)-6,7-dimethoxy-1,2,3,4-tetrahydroisoquinoline] | 300 | 3.0 ± 0.8 | 67.0 ± 3.6 | +300% | did not result in a significant decrease of toxicity | 3.0 | – | –
COc1cc2c(cc1OC)C(c1ccc(N(C)C)cc1)NCC2 (centres unmarked) [Compound 3q, 1-(4′-Dimethylaminophenyl)-6,7-dimethoxy-1,2,3,4-tetrahydroisoquinoline] | 1250 | 2.0 ± 0.6 | 45.0 ± 4.1 | +220% | ~4.5 fold | 2.2 | – | –
COc1cc2c(cc1OC)C(c1ccc(Cl)cc1)NCC2 (centres unmarked) [Compound 3r, 1-(4′-Chlorophenyl)-6,7-dimethoxy-1,2,3,4-tetrahydroisoquinoline] | 740 | 2.0 ± 0.6 | 35.0 ± 3.4 | +150% | 2.5–2.6 fold | – | – | eye irritation and redness; also recorded: reversible irritation and redness of the eyes
COc1cc2c(cc1OC)C(c1ccc(N)cc1)NCC2 (centres unmarked) [Compound 4a, 1-(4′-Aminophenyl)-6,7-dimethoxy-1,2,3,4-tetrahydroisoquinoline] | 1050 | 2.0 ± 0.7 | 25.0 ± 4.0 | +40% | 3.75 fold | – | – | eye irritation and redness; also recorded: reversible irritation and redness of the eyes
COc1cc2c(cc1OC)C(c1cccc(N)c1)NCC2 (centres unmarked) [Compound 4b, 1-(3′-Aminophenyl)-6,7-dimethoxy-1,2,3,4-tetrahydroisoquinoline] | 750 | 3.0 ± 0.7 | 44.0 ± 4.1 | +0% | – | – | – | –
CCN(CC)CC(=O)Nc1c(C)cccc1C [Lidocaine, reference compound] | – | 5.0 ± 0.5 | 52.7 ± 4.9 | – | – | – | – | –
